# System: barnyardgrass (Echinochloa crus-galli)
# Assay: Test A preemergence, barnyardgrass
# Format: in vivo
# Settings: 125 g ai/ha, 0 to 100 scale
# Description: (§1) Seeds of plant species selected from barnyardgrass (Echinochloa crus-galli), crabgrass (large crabgrass, Digitaria sanguinalis), kochia (Kochia scoparia), ragweed (common ragweed, Ambrosia elatior), morningglory (Ipomoea spp.), velvetleaf (Abutilon theophrasti), ryegrass, It. (Italian ryegrass, Lolium multiflorum), foxtail, giant (giant foxtail, Setaria faberii), wheat (Triticum aestivum), corn (Zea mays), and pigweed (Amaranthus retroflexus), were planted into a blend of loam soil and sand and treated preemergence with a directed soil spray using test chemicals formulated in a non-phytotoxic solvent mixture which included a surfactant. At the same time, plants selected from these crop and weed species and also blackgrass (Alopecurus myosuroides), and galium (catchweed bedstraw, Galium aparine), were planted in pots containing the same blend of loam soil and sand and treated with postemergence applications of test chemicals formulated in the same manner. Plants ranged in height from 2 to 10 cm and were in the one- to two-leaf stage for the postemergence treatment. Treated plants and untreated controls were maintained in a greenhouse for approximately 10 d, after which time all treated plants were compared to untreated controls and visually evaluated for injury. Plant response ratings, summarized in Table A, are based on a 0 to 100 scale where 0 is no effect and 100 is complete control. A dash (-) response means no test result.
row,Structure (SMILES),"Plant response rating, Barnyardgrass"
1,O=C1NCC(C#Cc2ccc(F)cc2)C1C(=O)Nc1cccc(F)c1F (stereo not drawn) [Compound 16],20

# Same assay, conditions: 500 g ai/ha, 0 to 100 scale
row,Structure (SMILES),"Plant response rating, Barnyardgrass"
1,O=C1NCC(C#Cc2ccc(F)cc2)C1C(=O)Nc1cccc(F)c1F (stereo not drawn) [Compound 16],90

# System: kochia (Kochia scoparia)
# Assay: Test A preemergence, kochia
# Format: in vivo
# Settings: 125 g ai/ha, 0 to 100 scale
# Description: as §1
row,Structure (SMILES),"Plant response rating, Kochia"
1,O=C1NCC(C#Cc2ccc(F)cc2)C1C(=O)Nc1cccc(F)c1F (stereo not drawn) [Compound 16],0

# Same assay, conditions: 500 g ai/ha, 0 to 100 scale
row,Structure (SMILES),"Plant response rating, Kochia"
1,O=C1NCC(C#Cc2ccc(F)cc2)C1C(=O)Nc1cccc(F)c1F (stereo not drawn) [Compound 16],0

# System: ragweed (common ragweed, Ambrosia elatior)
# Assay: Test A preemergence, ragweed
# Format: in vivo
# Settings: 125 g ai/ha, 0 to 100 scale
# Description: as §1
row,Structure (SMILES),"Plant response rating, Ragweed"
1,O=C1NCC(C#Cc2ccc(F)cc2)C1C(=O)Nc1cccc(F)c1F (stereo not drawn) [Compound 16],0

# Same assay, conditions: 500 g ai/ha, 0 to 100 scale
row,Structure (SMILES),"Plant response rating, Ragweed"
1,O=C1NCC(C#Cc2ccc(F)cc2)C1C(=O)Nc1cccc(F)c1F (stereo not drawn) [Compound 16],0

# System: ryegrass, It. (Italian ryegrass, Lolium multiflorum)
# Assay: Test A preemergence, ryegrass, It.
# Format: in vivo
# Settings: 125 g ai/ha, 0 to 100 scale
# Description: as §1
row,Structure (SMILES),"Plant response rating, Ryegrass, It."
1,O=C1NCC(C#Cc2ccc(F)cc2)C1C(=O)Nc1cccc(F)c1F (stereo not drawn) [Compound 16],0

# Same assay, conditions: 500 g ai/ha, 0 to 100 scale
row,Structure (SMILES),"Plant response rating, Ryegrass, It."
1,O=C1NCC(C#Cc2ccc(F)cc2)C1C(=O)Nc1cccc(F)c1F (stereo not drawn) [Compound 16],0

# System: foxtail, giant (giant foxtail, Setaria faberii)
# Assay: Test A preemergence, foxtail, giant
# Format: in vivo
# Settings: 125 g ai/ha, 0 to 100 scale
# Description: as §1
row,Structure (SMILES),"Plant response rating, Foxtail, Giant"
1,O=C1NCC(C#Cc2ccc(F)cc2)C1C(=O)Nc1cccc(F)c1F (stereo not drawn) [Compound 16],60

# Same assay, conditions: 500 g ai/ha, 0 to 100 scale
row,Structure (SMILES),"Plant response rating, Foxtail, Giant"
1,O=C1NCC(C#Cc2ccc(F)cc2)C1C(=O)Nc1cccc(F)c1F (stereo not drawn) [Compound 16],90

# System: pigweed (Amaranthus retroflexus)
# Assay: Test A preemergence, pigweed
# Format: in vivo
# Settings: 125 g ai/ha, 0 to 100 scale
# Description: as §1
row,Structure (SMILES),"Plant response rating, Pigweed"
1,O=C1NCC(C#Cc2ccc(F)cc2)C1C(=O)Nc1cccc(F)c1F (stereo not drawn) [Compound 16],0

# Same assay, conditions: 500 g ai/ha, 0 to 100 scale
row,Structure (SMILES),"Plant response rating, Pigweed"
1,O=C1NCC(C#Cc2ccc(F)cc2)C1C(=O)Nc1cccc(F)c1F (stereo not drawn) [Compound 16],0

# System: barnyardgrass (Echinochloa crus-galli)
# Assay: Test A postemergence, barnyardgrass
# Format: in vivo
# Settings: 125 g ai/ha, 0 to 100 scale
# Description: as §1
row,Structure (SMILES),"Plant response rating, Barnyardgrass"
1,O=C1NCC(C#Cc2ccc(F)cc2)C1C(=O)Nc1cccc(F)c1F (stereo not drawn) [Compound 16],40

# Same assay, conditions: 500 g ai/ha, 0 to 100 scale
row,Structure (SMILES),"Plant response rating, Barnyardgrass"
1,O=C1NCC(C#Cc2ccc(F)cc2)C1C(=O)Nc1cccc(F)c1F (stereo not drawn) [Compound 16],60

# System: kochia (Kochia scoparia)
# Assay: Test A postemergence, kochia
# Format: in vivo
# Settings: 125 g ai/ha, 0 to 100 scale
# Description: as §1
row,Structure (SMILES),"Plant response rating, Kochia"
1,O=C1NCC(C#Cc2ccc(F)cc2)C1C(=O)Nc1cccc(F)c1F (stereo not drawn) [Compound 16],0

# Same assay, conditions: 500 g ai/ha, 0 to 100 scale
row,Structure (SMILES),"Plant response rating, Kochia"
1,O=C1NCC(C#Cc2ccc(F)cc2)C1C(=O)Nc1cccc(F)c1F (stereo not drawn) [Compound 16],0

# System: ragweed (common ragweed, Ambrosia elatior)
# Assay: Test A postemergence, ragweed
# Format: in vivo
# Settings: 125 g ai/ha, 0 to 100 scale
# Description: as §1
row,Structure (SMILES),"Plant response rating, Ragweed"
1,O=C1NCC(C#Cc2ccc(F)cc2)C1C(=O)Nc1cccc(F)c1F (stereo not drawn) [Compound 16],0

# Same assay, conditions: 500 g ai/ha, 0 to 100 scale
row,Structure (SMILES),"Plant response rating, Ragweed"
1,O=C1NCC(C#Cc2ccc(F)cc2)C1C(=O)Nc1cccc(F)c1F (stereo not drawn) [Compound 16],0

# System: ryegrass, It. (Italian ryegrass, Lolium multiflorum)
# Assay: Test A postemergence, ryegrass, It.
# Format: in vivo
# Settings: 125 g ai/ha, 0 to 100 scale
# Description: as §1
row,Structure (SMILES),"Plant response rating, Ryegrass, It."
1,O=C1NCC(C#Cc2ccc(F)cc2)C1C(=O)Nc1cccc(F)c1F (stereo not drawn) [Compound 16],0

# Same assay, conditions: 500 g ai/ha, 0 to 100 scale
row,Structure (SMILES),"Plant response rating, Ryegrass, It."
1,O=C1NCC(C#Cc2ccc(F)cc2)C1C(=O)Nc1cccc(F)c1F (stereo not drawn) [Compound 16],0

# System: foxtail, giant (giant foxtail, Setaria faberii)
# Assay: Test A postemergence, foxtail, giant
# Format: in vivo
# Settings: 125 g ai/ha, 0 to 100 scale
# Description: as §1
row,Structure (SMILES),"Plant response rating, Foxtail, Giant"
1,O=C1NCC(C#Cc2ccc(F)cc2)C1C(=O)Nc1cccc(F)c1F (stereo not drawn) [Compound 16],20

# Same assay, conditions: 500 g ai/ha, 0 to 100 scale
row,Structure (SMILES),"Plant response rating, Foxtail, Giant"
1,O=C1NCC(C#Cc2ccc(F)cc2)C1C(=O)Nc1cccc(F)c1F (stereo not drawn) [Compound 16],40

# System: wheat (Triticum aestivum)
# Assay: Test A postemergence, wheat
# Format: in vivo
# Settings: 125 g ai/ha, 0 to 100 scale
# Description: as §1
row,Structure (SMILES),"Plant response rating, Wheat"
1,O=C1NCC(C#Cc2ccc(F)cc2)C1C(=O)Nc1cccc(F)c1F (stereo not drawn) [Compound 16],0

# Same assay, conditions: 500 g ai/ha, 0 to 100 scale
row,Structure (SMILES),"Plant response rating, Wheat"
1,O=C1NCC(C#Cc2ccc(F)cc2)C1C(=O)Nc1cccc(F)c1F (stereo not drawn) [Compound 16],0

# System: corn (Zea mays)
# Assay: Test A postemergence, corn
# Format: in vivo
# Settings: 125 g ai/ha, 0 to 100 scale
# Description: as §1
row,Structure (SMILES),"Plant response rating, Corn"
1,O=C1NCC(C#Cc2ccc(F)cc2)C1C(=O)Nc1cccc(F)c1F (stereo not drawn) [Compound 16],0

# Same assay, conditions: 500 g ai/ha, 0 to 100 scale
row,Structure (SMILES),"Plant response rating, Corn"
1,O=C1NCC(C#Cc2ccc(F)cc2)C1C(=O)Nc1cccc(F)c1F (stereo not drawn) [Compound 16],0

# System: pigweed (Amaranthus retroflexus)
# Assay: Test A postemergence, pigweed
# Format: in vivo
# Settings: 125 g ai/ha, 0 to 100 scale
# Description: as §1
row,Structure (SMILES),"Plant response rating, Pigweed"
1,O=C1NCC(C#Cc2ccc(F)cc2)C1C(=O)Nc1cccc(F)c1F (stereo not drawn) [Compound 16],0

# Same assay, conditions: 500 g ai/ha, 0 to 100 scale
row,Structure (SMILES),"Plant response rating, Pigweed"
1,O=C1NCC(C#Cc2ccc(F)cc2)C1C(=O)Nc1cccc(F)c1F (stereo not drawn) [Compound 16],0

# System: blackgrass (Alopecurus myosuroides)
# Assay: Test A postemergence, blackgrass
# Format: in vivo
# Settings: 125 g ai/ha, 0 to 100 scale
# Description: as §1
row,Structure (SMILES),"Plant response rating, Blackgrass"
1,O=C1NCC(C#Cc2ccc(F)cc2)C1C(=O)Nc1cccc(F)c1F (stereo not drawn) [Compound 16],0

# Same assay, conditions: 500 g ai/ha, 0 to 100 scale
row,Structure (SMILES),"Plant response rating, Blackgrass"
1,O=C1NCC(C#Cc2ccc(F)cc2)C1C(=O)Nc1cccc(F)c1F (stereo not drawn) [Compound 16],0

# System: galium (catchweed bedstraw, Galium aparine)
# Assay: Test A postemergence, galium
# Format: in vivo
# Settings: 125 g ai/ha, 0 to 100 scale
# Description: as §1
row,Structure (SMILES),"Plant response rating, Galium"
1,O=C1NCC(C#Cc2ccc(F)cc2)C1C(=O)Nc1cccc(F)c1F (stereo not drawn) [Compound 16],0

# Same assay, conditions: 500 g ai/ha, 0 to 100 scale
row,Structure (SMILES),"Plant response rating, Galium"
1,O=C1NCC(C#Cc2ccc(F)cc2)C1C(=O)Nc1cccc(F)c1F (stereo not drawn) [Compound 16],0

# System: barnyardgrass (Echinochloa crus-galli)
# Assay: Test B flooded paddy test, barnyardgrass
# Format: in vivo
# Settings: Flood, 250 g ai/ha; scale of 0 to 100 where 0 is no effect and 100 is complete control; 13 to 15 d
# Experimental: (§2) Plant species in the flooded paddy test selected from rice (Oryza sativa), sedge, umbrella (small-flower umbrella sedge, Cyperus difformis), ducksalad (Heteranthera limosa), and barnyardgrass (Echinochloa crus-galli) were grown to the 2-leaf stage for testing. At time of treatment, test pots were flooded to 3 cm above the soil surface, treated by application of test compounds directly to the paddy water, and then maintained at that water depth for the duration of the test. Treated plants and controls were maintained in a greenhouse for 13 to 15 d, after which time all species were compared to controls and visually evaluated. Plant response ratings, summarized in Table B, are based on a scale of 0 to 100 where 0 is no effect and 100 is complete control. A dash (-) response means no test result.
row,Structure (SMILES),"Plant response rating, Barnyardgrass"
1,O=C1NCC(C#Cc2ccc(F)cc2)C1C(=O)Nc1cccc(F)c1F (stereo not drawn) [Compound 16],0

# System: ducksalad (Heteranthera limosa)
# Assay: Test B flooded paddy test, ducksalad
# Format: in vivo
# Settings: Flood, 250 g ai/ha; scale of 0 to 100 where 0 is no effect and 100 is complete control; 13 to 15 d
# Experimental: as §2
row,Structure (SMILES),"Plant response rating, Ducksalad"
1,O=C1NCC(C#Cc2ccc(F)cc2)C1C(=O)Nc1cccc(F)c1F (stereo not drawn) [Compound 16],70

# System: rice (Oryza sativa)
# Assay: Test B flooded paddy test, rice
# Format: in vivo
# Settings: Flood, 250 g ai/ha; scale of 0 to 100 where 0 is no effect and 100 is complete control; 13 to 15 d
# Experimental: as §2
row,Structure (SMILES),"Plant response rating, Rice"
1,O=C1NCC(C#Cc2ccc(F)cc2)C1C(=O)Nc1cccc(F)c1F (stereo not drawn) [Compound 16],0

# System: sedge, umbrella (small-flower umbrella sedge, Cyperus difformis)
# Assay: Test B flooded paddy test, sedge, umbrella
# Format: in vivo
# Settings: Flood, 250 g ai/ha; scale of 0 to 100 where 0 is no effect and 100 is complete control; 13 to 15 d
# Experimental: as §2
row,Structure (SMILES),"Plant response rating, Sedge, Umbrella"
1,O=C1NCC(C#Cc2ccc(F)cc2)C1C(=O)Nc1cccc(F)c1F (stereo not drawn) [Compound 16],0

# Reference: US10906873B2, “Substituted cyclic amides as herbicides” (FMC Corporation, priority 2015, dated 2021)
